{
  "source": "paper PMC12884720",
  "about": "“Gabpα‐Pparγ Complex Determines Glycolytic Capacity and Lactic Acid Homeostasis in Brown Fat” (Advanced Science, 2025)",
  "molecules": {"B1": {"name": "Gabpα protein (SPR analyte) (natural protein, UniProt Q00422 1-454, looked up)", "chain": "MTKREAEELIEIEIDGTEKAECTEESIVEQTYTPAECVSQAIDINEPIGNLKKLLEPRLQCSLDAHEICLQDIQLDPDRSLFDQGVKTDGTVQLSVQVISYQGMEPKLNILEIVKTAETVEVVIDPDAHHAEAEAHLVEEAQVITLDGTKHITTISDETSEQVTRWAAALEGYRKEQERLGIPYDPIHWSTDQVLHWVVWVMKEFSMTDIDLTTLNISGRELCSLNQEDFFQRVPRGEILWSHLELLRKYVLASQEQQMNEIVTIDQPVQIIPASVPPATPTTIKVINSSAKAAKVQRSPRISGEDRSSPGNRTGNNGQIQLWQFLLELLTDKDARDCISWVGDEGEFKLNQPELVAQKWGQRKNKPTMNYEKLSRALRYYYDGDMICKVQGKRFVYKFVCDLKTLIGYSAAELNRLVIECEQKKLARMQLHGIAQPVTAVALAATSLQADKEI", "notes": "May be the Cusabio GST-Gabpα of the pull-down"}},
  "key": {"[1]": {"test_system": "differentiated iBAT‐SVF cells", "experiment": "Lactate levels in differentiated iBAT-SVF cells", "type": "cell-based, C57BL/6 mice", "settings": "GPCBi 5 µM, first 2 days of differentiation, and Enoblock 10 µM for 24 h (Figure 5o)", "procedure": "(§1) Interscapular BAT‐SVF cells were obtained from eight‐week‐old male C57BL/6 mice. Briefly, BAT was excised, washed in PBS, minced, and digested at 37 °C for 40 min in Hanks solution containing type II collagenase (Sigma, Cat# C‐6885) and 4% bovine serum albumin (BSA). The tissue homogenates were filtered through a 70 µm cell strainer and centrifuged at 1000 rpm for 5 min. The cell pellet was resuspended in DMEM supplemented with 10% FBS (Sigma–Aldrich) and 1% penicillin/streptomycin (P/S) at 37 °C with 5% CO2. The next day, BAT‐SVF cells were immortalized with the SV40 large T antigen according to a published protocol.^[ [32] ^] For iBAT‐SVF cell differentiation, confluent SVF cells were induced to differentiate with medium containing 0.5 mM isobutylmethylxanthine (Sigma, Cat# I‐5879), 125 µM indomethacin (Sigma, Cat# I‐7378), 2 µg mL^−1 dexamethasone (Sigma, Cat# D‐1756), 5 µg mL^−1 insulin (Solarbio, Cat# I‐8040), 1 nM triiodo‐L‐thyronine (Sigma, Cat# T‐2877), and 1 µM rosiglitazone (Cayman, Cat# 71740‐100). After 48 h, the induction medium was replaced with a maintenance cocktail (5 µg mL^−1 insulin, 1 nM triiodo‐L‐thyronine, and 1 µM rosiglitazone) until 6 to 8 days after the induction of differentiation.\nBrown fat was homogenized with lysis buffer, ultrasonographically treated on ice at 300 W (on for 3 s, off for 7 s) for 2 min, and then centrifuged at 4 °C at 12 000 × g for 10 min. […] All protocols were followed in accordance with the manufacturer's guidelines."}, "[2]": {"test_system": "differentiated iBAT‐SVF cells", "experiment": "Relative mRNA and protein levels in differentiated iBAT-SVF cells", "type": "cell-based, C57BL/6 mice", "settings": "GPCBi 5 µM, first 2 days of differentiation, and Enoblock 10 µM for 24 h (Figure 5p)", "procedure": "Interscapular BAT‐SVF cells were obtained from eight‐week‐old male C57BL/6 mice. […] The tissue homogenates were filtered through a 70 µm cell strainer and centrifuged at 1000 rpm for 5 min. The cell pellet was resuspended in DMEM supplemented with 10% FBS (Sigma–Aldrich) and 1% penicillin/streptomycin (P/S) at 37 °C with 5% CO2. The next day, BAT‐SVF cells were immortalized with the SV40 large T antigen according to a published protocol.^[ [32] ^] […] After 48 h, the induction medium was replaced with a maintenance cocktail (5 µg mL^−1 insulin, 1 nM triiodo‐L‐thyronine, and 1 µM rosiglitazone) until 6 to 8 days after the induction of differentiation.\nReverse transcription of cDNA was completed via the use of 1 µg of RNA with HiScript II Q RT SuperMix for real‐time quantitative PCR (qPCR) (Vazyme Biotech, Nanjing, China, Cat# R222) according to the provided protocols. qPCR was performed with a real‐time PCR system on a QuantStudio1 (Applied Biosystems) using Taq Pro Universal SYBR qPCR Master Mix (Vazyme Biotech., Nanjing, China, Cat# Q712‐02). Relative transcript levels were calculated via the comparative C T method; 36b4 was used as the internal control for cells, whereas Hprt was used as the internal control for tissues. The primer sequences are listed in Table S1 (Supporting Information). The mRNAs from the BAT of control and Gabpα ^Ucp1 KO mice were extracted and subjected to commercial RNA‐seq (BGI Genomics Co., Ltd.) for further DEG and KEGG pathway enrichment analysis. In detail, RNA quality was examined with Fragment (Agilent). High‐quality RNA (RIN > 8.0) was used to library construction. RNA‐seq was performed at BGI Genomics (China) using the Illumina NovaSeq 6000 platform. Clean reads were aligned to the mouse reference genome (GRCm39) using Bowtie2, and transcript quantification was performed with RSEM. […] The RNA‐seq data generated in this study have been deposited in the National Center for Biotechnology Information Sequence Read Archive database under accession code PRJNA1358056.\nCells and tissues were lysed in RIPA lysis buffer (Beyotime, Shanghai, China, Cat# P0013B) containing a protease inhibitor cocktail (MedChem Express, NJ, USA, Cat# HY‐K0010) according to the manufacturer's protocol. Equal amounts of protein were separated on SDS‒PAGE gels and transferred to PVDF membranes (Millipore). The PVDF membranes were blocked in 5% skim milk for 1 h at room temperature and then incubated with primary antibody overnight at 4 °C. The membranes were washed three times with TBST and then incubated with HRP‐conjugated secondary antibodies for 1 h at room temperature. After washing three times, the Western blots were imaged via an enhanced chemiluminescence system."}, "Eno1 promoter": {"test_system": "Eno1 promoter", "experiment": "Luciferase reporter assay, Eno1-Luc activated by Gabpα and Pparγ/Rxrα", "type": "cell-based, human", "settings": "HEK293T cells, T0070907 10 µM, n = 3 (Figure 3o)", "procedure": "HEK293T cells were transfected with 100 ng of Pparγ and 100 ng of Rxrα or empty vector together with 100 ng of Gabpα plasmid or the C‐terminal truncation mutants and 200 ng of Eno1 luciferase reporter plasmid in 24‐well plates via Lipofectamine reagent (Yeasen, Shanghai, China, Cat# 40802ES03). For the experiments with the peptides GPCBi or T0070907, the additional peptides GPCBi (3 µM) or T0070907 (10 µM) were added to the HEK293T cells one day after the plasmid complex was transfected. After 48 h of transfection, luciferase activity was measured via the Dual‐Luciferase Reporter Assay System (Vazyme Biotech., Nanjing, China; Cat# DL101‐01). Firefly luciferase reporter gene measurements were normalized to Renilla luciferase activity."}, "BAT from wild‐type mice": {"test_system": "BAT from wild‐type mice", "experiment": "H&E staining and Ucp1 immunostaining of BAT", "type": "in vivo, wild‐type C57BL/6J mice", "settings": "GPCBi 5.5 mg kg^−1 in BAT for 7 days, then sodium lactate 2 g kg^−1 d^−1 i.p. daily for 3 days following 10 °C for 2 days; Ucp1 immunostaining (Figure 5g-i)", "procedure": "The mouse experiments were approved by the Institutional Animal Care and Use Committee of the Institute of Model Animals of Tongji Hospital, Huazhong University of Science and Technology, and were performed in compliance with all relevant ethical regulations (approval number: TJH‐202110044). Unless otherwise noted, the mice were housed in a pathogen‐free and climate‐controlled environment (22–25 °C, 40‐60% humidity) and were given free access to food and water on a 12 h light/dark cycle. Wild‐type C57BL/6J mice were obtained from Beijing Huafukang Bioscience Co., Ltd. (Beijing, China). Gabpa ^flox/flox , Adipoq^Cre , and Ucp1^Cre mice were purchased from Cyagen Biosciences, Inc. (Guangzhou, China). For GPCBi treatment, wild‐type mice were orthotopically injected GPCBi (FITC‐[…]; 5.5 mg kg^−1) or scramble peptide (FITC‐[…]; 5.5 mg kg^−1) into the BAT at room temperature for one week. […] For cold exposure, the mice were caged individually and exposed to a temperature of 10 or 4 °C. The mice were euthanized by CO2 inhalation. For studies with specific diets, five‐week‐old male Gabpα ^Adipo KI mice and their respective littermate control mice were fed a HFD (D12492, Research Diets; 60 kcal% fat, 20 kcal% carbohydrates, and 20 kcal% protein; Medicience Ltd., Jiangsu, China) at ambient temperature. The food was changed every week. Body weight was measured every week, and tissue weights were measured at the time of euthanasia.\nFor haematoxylin and eosin (H&E) staining, adipose tissues and the liver were fixed in 4% paraformaldehyde overnight at 4 °C and then dehydrated in 70% ethanol. The tissues were subsequently embedded in paraffin, sectioned at a thickness of 5 µm, and stained with H&E or immunostained with a Ucp1 antibody (Abcam, UK, Cat# ab234430, 1:500 dilution) following the standard protocol. For Oil Red O staining, frozen liver sections were stained with Oil Red O solution for 10 min and then counterstained with haematoxylin for 20 s. Images of the tissue samples were captured via an Olympus BX53 Orthomicroscope. […]"}, "iBAT‐SVF cells": {"test_system": "iBAT‐SVF cells", "experiment": "Immunofluorescence, nuclear localization of FITC-GPCBi in iBAT-SVF cells", "type": "cell-based, C57BL/6 mice", "settings": "FITC‐GPCBi 5 µM, first 2 days of adipogenic differentiation; DAPI (Figure 4d)", "procedure": "as §1, with “After 48 h, the induction medium was replaced with a maintenance cocktail (5 µg mL^−1 insulin, 1 nM triiodo‐L‐thyronine, and 1 µM rosiglitazone) until 6 to 8 days after the induction of differentiation.” left out\nDifferentiated iBAT‐SVF cells were fixed with 4% paraformaldehyde for 20 min at room temperature and then rinsed three times with PBS. […] The cells were subsequently washed three times with PBS and incubated with a fluorescence‐conjugated secondary antibody (ABclonal, Wuhan, China, Cat# AS053; AS008, 1:200 dilution) for 1 h at room temperature. […]"}, "[3]": {"biological_target": "T1, Pparγ protein (SPR ligand) (UniProt P37238 1-505)", "T1 construct": "May be the Cusabio His-Pparγ of the pull-down", "T1 sequence (looked up)": "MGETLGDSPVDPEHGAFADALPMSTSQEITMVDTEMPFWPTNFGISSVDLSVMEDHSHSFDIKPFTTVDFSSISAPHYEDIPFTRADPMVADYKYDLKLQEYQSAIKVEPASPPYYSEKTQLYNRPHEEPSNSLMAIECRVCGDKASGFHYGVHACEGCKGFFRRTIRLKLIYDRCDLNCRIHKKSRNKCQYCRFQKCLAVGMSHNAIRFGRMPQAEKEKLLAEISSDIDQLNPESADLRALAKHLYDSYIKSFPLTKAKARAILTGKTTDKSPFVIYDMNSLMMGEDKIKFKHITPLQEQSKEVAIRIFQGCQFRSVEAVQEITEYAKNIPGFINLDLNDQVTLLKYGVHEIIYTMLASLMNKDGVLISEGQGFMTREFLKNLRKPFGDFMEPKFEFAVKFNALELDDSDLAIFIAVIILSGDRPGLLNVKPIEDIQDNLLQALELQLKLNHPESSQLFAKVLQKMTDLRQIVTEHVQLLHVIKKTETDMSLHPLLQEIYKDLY", "experiment": "SPR; Biacore T200, CM5 chip; Pparγ immobilised covalently; different concentrations of Gabpα injected; 120 s association, 200 s dissociation", "settings": "both partners purified"}, "[4]": {"biological_target": "B1", "experiment": "not stated; direct binding of GPCBi to Gabpα, dose-dependent (Figure S4d); method and who was immobilised not told", "settings": "both partners purified"}},
  "note": "No end group written: not given here. *: point of attachment. FITC = O=C1OC2(c3ccc(O)cc3Oc3cc(O)ccc32)c2ccc(NC(=S)*)cc21",
  "data": [
    {"molecule": "NCCOCCOCCNC(=O)Cc1ccc(Nc2nc(NCc3ccc(F)cc3)nc(NCC3CCCCC3)n2)cc1", "note": "[Enoblock, reference compound]", "values": [
      {"measurement": "GPCBi-induced reduction of lactate level in presence of Enoblock", "setting": "[1]", "result": "not observed"},
      {"measurement": "ucp1 expression when Enoblock further added to GPCBi-treated brown adipocytes", "setting": "[2]", "result": "no change"}
    ]},
    {"molecule": "O=C(Nc1ccncc1)c1cc([N+](=O)[O-])ccc1Cl", "note": "[T0070907, reference compound]", "values": [
      {"measurement": "Eno1 promoter activity induced by Gabpα", "setting": "Eno1 promoter", "result": "inhibited"}
    ]},
    {"molecule": "CC(O)C(=O)[O-].[Na+]", "note": "(stereo not shown) [lactate, sodium lactate, reference compound]", "values": [
      {"measurement": "Ucp1 expression suppressed by GPCBi (rescue)", "setting": "BAT from wild‐type mice", "result": "rescued"}
    ]},
    {"molecule": "FITC‐tagged GPCBi: FITC‐tagged GPCBi ({FITC}-YGRKKRRQRRRRRTIRLKLIYDRCDLNCRIHKKSRNK; cysteine pairing not given here)", "values": [
      {"measurement": "cellular localization", "setting": "iBAT‐SVF cells", "result": "nuclear localization"}
    ]},
    {"molecule": "B1", "values": [
      {"measurement": "Kd", "setting": "[3]", "result": 5.34, "unit": "nM"}
    ]},
    {"molecule": "{FITC}-YGRKKRRQRRRRRTIRLKLIYDRCDLNCRIHKKSRNK (cysteine pairing not given here, the numbers fit the 505-residue Pparγ2; also called FITC-GPCBi; peptide GPCBi; source: synthetic peptide)", "note": "[Gabpα-Pparγ complex binding inhibitor (GPCBi)]", "values": [
      {"measurement": "Kd", "setting": "[4]", "result": 7.03, "unit": "nM"}
    ]}
  ]
}
